Measurements from paper PMC8613358, “Next generation Glucose-1-phosphate thymidylyltransferase (RmlA) inhibitors: An extended SAR study to direct future design” (Bioorganic & Medicinal Chemistry, 2021).
≈ marks a conversion by molar mass, not a printed value. Entries after “also recorded” stand apart in the source; their conditions may differ. Where a name gives a salt, the structure may show the parent alone.

Experiments:
[1] = molecular target: T1, P. aeruginosa RmlA (Pseudomonas aeruginosa, UniProt Q9HU22); assay: In vitro RmlA inhibition assay (BIOMOL Green phosphate detection); assay type: biochemical; settings: for inhibition at 10 µM: 10 μM inhibitor, 30 min, room temperature; for inhibition at 10 µM / IC50: 15 nM recombinant RmlA, 5 μM dTTP, 5 μM G-1-P; for LE (Ligand efficiency): LE = pIC50/number of heavy atoms; for LLE (Lipophilic ligand efficiency): LLE = pIC50 – cLogP; for increase in potency compared to 1b: ratio of IC50 values vs 1b; for IC50: ± SD, n = 3
T1 construct: made in house
Protocol: Each assay was performed in a 101 μL reaction volume containing 50 mM Tris (pH 7.4), 5 mM MgCl2, 1 mM dithiothreitol, 0.1 mM EDTA (pH 8.0), 0.1 mM EGTA (pH 8.0), 0.05% NP-40, 15 nM recombinant RmlA, 0.8 μg/ml pyrophosphatase, 5 μM dTTP and 5 μM G-1-P. The inhibitor was added to the plate (20 μL) followed by RmlA (30 μL). The reaction was initiated with the addition of dTTP (25 μL), G-1-P (25 μL) and pyrophosphatase (1 μL) as a mixture in one charge (51 μL total) and the assay was allowed to run for 30 min at room temperature. The reaction was quenched by addition of BIOMOL™ Green reagent (100 μL) and was allowed to develop before the absorbance of each well was measured at 620 nm.

[2] = system: M.tuberculosis (H37Rv); parameters: method as in PMID 23138692; settings: cited from earlier work

T1 sequence (Q9HU22 1-293): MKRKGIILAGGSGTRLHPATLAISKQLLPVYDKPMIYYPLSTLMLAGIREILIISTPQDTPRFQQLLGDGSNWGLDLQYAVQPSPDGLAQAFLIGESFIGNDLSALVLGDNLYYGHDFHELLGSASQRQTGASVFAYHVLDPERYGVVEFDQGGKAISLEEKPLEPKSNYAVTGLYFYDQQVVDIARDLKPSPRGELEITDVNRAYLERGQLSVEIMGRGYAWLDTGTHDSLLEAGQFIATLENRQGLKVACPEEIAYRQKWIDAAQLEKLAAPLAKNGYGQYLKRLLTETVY

SMILES | inhibition at 10 µM [1] [%] | LE (Ligand efficiency) [1] | LLE (Lipophilic ligand efficiency) [1] | increase in potency compared to 1b [1] [fold] | IC50 [1] [nM] | melting point [°C] | activity against P. aeruginosa RmlA (in words) [1] | MIC100 (M. tuberculosis) [2] [µg/mL]
CN(c1c(NCCCCCN)n(Cc2ccc(Br)cc2)c(=O)[nH]c1=O)S(=O)(=O)c1ccccc1 [Compound 1e, N-(6-((5-aminopentyl)amino)-1-(4-bromobenzyl)-2,4-dioxo-1,2,3,4-tetrahydropyrimidin-5-yl)-N-methylbenzenesulfonamide] | 100 | 0.27 | 3.90 | ~2.5 | 316 ± 23 | 317 to 319 |  | 
CN(c1c(N)n(Cc2ccc(Br)cc2)c(=O)[nH]c1=O)S(=O)(=O)c1ccccc1 [Compound 1a] | 100 | 0.37 | 5.20 |  | 34 ± 2 |  |  | 
CNCCCNc1c(N(C)S(=O)(=O)c2ccccc2)c(=O)[nH]c(=O)n1Cc1ccc(Br)cc1 (as salt: TFA) [Compound 1b, N-(1-(4-bromobenzyl)-6-((3-(methylamino)propyl)amino)-2,4-dioxo-1,2,3,4-tetrahydropyrimidin-5-yl)-N-methylbenzenesulfonamide] |  |  |  |  |  | 294 to 297 |  | 
CNCCNc1c(N(C)S(=O)(=O)c2ccccc2)c(=O)[nH]c(=O)n1Cc1ccc(Br)cc1 [Compound 1c, N-(1-(4-bromobenzyl)-6-((2-(methylamino)ethyl)amino)-2,4-dioxo-1,2,3,4-tetrahydropyrimidin-5-yl)-N-methylbenzenesulfonamide] | 0 |  |  |  |  |  | complete loss of activity; also recorded: lost the inhibitory activity | 
CN(c1c(N)n(Cc2ccccc2)c(=O)[nH]c1=O)S(=O)(=O)c1ccccc1 [Compound 8a] |  |  |  |  |  |  |  | 100 (≈ 259 µM)
CN(c1c(NCCCCN)n(Cc2ccc(Br)cc2)c(=O)[nH]c1=O)S(=O)(=O)c1ccccc1 [Compound 1d, N-(6-((4-aminobutyl)amino)-1-(4-bromobenzyl)-2,4-dioxo-1,2,3,4-tetrahydropyrimidin-5-yl)-N-methylbenzenesulfonamide] | 100 | 0.28 | 4.40 | ~2.5 | 303 ± 26 | 311 to 313 |  | 
CNCCCNc1c(N(C)S(=O)(=O)c2ccccc2)c(=O)[nH]c(=O)n1Cc1ccc(Br)cc1 [Compound 1b, N-(1-(4-bromobenzyl)-6-((3-(methylamino)propyl)amino)-2,4-dioxo-1,2,3,4-tetrahydropyrimidin-5-yl)-N-methylbenzenesulfonamide] | 100 | 0.30 | 4.30 |  | 860 ± 96 |  |  | 
CN(c1c(NCCCn2cc(CN)nn2)n(Cc2ccccc2)c(=O)[nH]c1=O)S(=O)(=O)c1ccccc1 [Compound 1f] | 100 | 0.21 | 4.50 |  | 2470 ± 20 | 295 to 297 |  | 
CNCCNc1c(N(C)S(=O)(=O)c2ccccc2)c(=O)[nH]c(=O)n1Cc1ccc(Br)cc1 (as salt: TFA) [Compound 1c, N-(1-(4-bromobenzyl)-6-((2-(methylamino)ethyl)amino)-2,4-dioxo-1,2,3,4-tetrahydropyrimidin-5-yl)-N-methylbenzenesulfonamide] |  |  |  |  |  | 283 to 286 |  | 
